In BindingDB's records for doi:10.1016/j.ejmech.2021.113895 (University of Pisa, 2021) one finds IC50 data, which are given here for nine compounds.

Molecules are shown by their SMILES.

The nature of the experiment: Inhibition of recombinant full length human His-tagged PDK1 expressed in Baculovirus expression system in presence of ATP measured by […].
For `Cc1ccc(C(=O)NCC(=O)Nc2ccc3c(c2)/C(=C/c2cnc[nH]2)C(=O)N3)c(=O)n1Cc1ccc(F)c(F)c1`, the IC50 is 103 nM.
Consider `Cc1c(Br)cc(C(=O)NCC(=O)Nc2ccc3c(c2)/C(=C/c2cnc[nH]2)C(=O)N3)c(=O)n1Cc1ccc(F)c(F)c1`, for which the IC50 came out at 134 nM.
With `O=C(CCCNC(=O)c1cccn(Cc2ccc(F)c(F)c2)c1=O)Nc1ccc2c(c1)C(=Cc1cccs1)C(=O)N2` [US10351548, Compound DF9], the half-inhibitory concentration (IC50) turned out to be 5880 nM.
With `O=C(CCNC(=O)c1cccn(Cc2ccc(F)c(F)c2)c1=O)Nc1ccc2c(c1)/C(=C/c1cnc[nH]1)C(=O)N2` [US10351548, Compound DD21], the IC50 was 103 nM.
Turning to `Cc1c(Br)cc(C(=O)N[C@@H](C(=O)Nc2ccc3c(c2)/C(=C/c2cnc[nH]2)C(=O)N3)c2ccccc2)c(=O)n1Cc1ccc(F)c(F)c1`, the 50% inhibitory concentration (IC50) is 475 nM.
As for `Cc1ccc(C(=O)N[C@@H](C(=O)Nc2ccc3c(c2)/C(=C/c2cnc[nH]2)C(=O)N3)c2ccccc2)c(=O)n1Cc1ccc(F)c(F)c1`, the IC50 was determined as 148 nM.
Next, `O=C(CCNC(=O)c1cccn(Cc2ccc(F)c(F)c2)c1=O)Nc1ccc2c(c1)/C(=C/c1ncc[nH]1)C(=O)N2`: 455 nM; `O=C(CCNC(=O)c1cccn(Cc2ccc(F)c(F)c2)c1=O)Nc1ccc2c(c1)C(=Cc1cccs1)C(=O)N2`: 1340 nM.
Turning to `O=C(CCCNC(=O)c1cccn(Cc2ccc(F)c(F)c2)c1=O)Nc1ccc2c(c1)/C(=C/c1cnc[nH]1)C(=O)N2` [US10351548, Compound DF8], the IC50 turned out to be 245 nM.
